How the values were obtained:
StDCyD [1] = molecular target: T1, StDCyD (Salmonella enterica, UniProt Q8ZNT7); assay: X-ray crystallography, co-crystallization; type: binding
T1 construct: gene dcyD; 36 kDa, dimer in solution; PLP on Lys51
T1 sequence (Q8ZNT7 1-328): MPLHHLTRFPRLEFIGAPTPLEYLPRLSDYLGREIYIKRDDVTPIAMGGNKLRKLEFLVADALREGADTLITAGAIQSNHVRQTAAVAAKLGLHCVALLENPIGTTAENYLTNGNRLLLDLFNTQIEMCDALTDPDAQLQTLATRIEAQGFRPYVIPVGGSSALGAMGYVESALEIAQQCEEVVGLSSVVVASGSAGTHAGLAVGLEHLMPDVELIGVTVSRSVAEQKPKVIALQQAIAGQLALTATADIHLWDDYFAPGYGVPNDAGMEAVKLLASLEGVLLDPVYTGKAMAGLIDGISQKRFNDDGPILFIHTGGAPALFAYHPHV

StDCyD [2] = molecular target: T1, StDCyD; assay: X-ray crystallography, crystal soak; UV-visible spectra; type: binding; conditions: covalent; external aldimine with PLP; 10 mM, about 2 min soak
StDCyD [3] = molecular target: T1, StDCyD; assay: X-ray crystallography; absorbance maximum […] nm; type: binding; conditions: covalent; Schiff base with Lys51
StDCyD [4] = molecular target: T1, StDCyD; assay: X-ray crystallography, co-crystallization with DCS or LCS; type: binding; conditions: active site, not covalently linked to Lys51; formed from PLP by DCS (4D9B) or LCS (4D9C)
StDCyD [5] = molecular target: T1, StDCyD; assay: thermal melting; type: binding; conditions: 10 mM pyruvate; Tm without and with ligand; data not shown
StDCyD [6] = molecular target: T1, StDCyD; assay: X-ray crystallography, crystals soaked with D-Cys or βCDA; type: binding; conditions: second site 4.0-6.0 Å from the active site (Arg222, Ser221); formed from D-Cys (4D8W) or βCDA (4D92)
[7] = molecular target: the molecule itself; assay: SEC; analytical gel filtration of the purified protein

NC1(C(=O)O)CC1 [ACC]
X-ray crystallography, co-crystallization (StDCyD [1]; covalent, external aldimine with PLP, not a substrate): StDCyD cocrystallized with ACC (PDB code: 4D96) revealed that the ligand binds as an external aldimine

N[C@H](CO)C(=O)O [D-Ser]
X-ray crystallography, co-crystallization (StDCyD [1]; active site, non-covalent, internal aldimine intact, poor substrate): Structures of StDCyD-D-Ser (PDB code: 4D97) and StDCyD-L-Ser (PDB code: 4D99) complexes

N[C@@H]1CONC1=O [DCS]
X-ray crystallography, crystal soak; UV-visible spectra (StDCyD [2]): Electron density observed at the active site was consistent with external aldimines of DCS or LCS

N[C@@H](CO)C(=O)O [L-Ser]
X-ray crystallography, co-crystallization (StDCyD [1]; active site, non-covalent, internal aldimine intact, not a substrate): Structures of StDCyD-D-Ser (PDB code: 4D97) and StDCyD-L-Ser (PDB code: 4D99) complexes

N[C@H]1CONC1=O [LCS]
X-ray crystallography, crystal soak; UV-visible spectra (StDCyD [2]): Electron density observed at the active site was consistent with external aldimines of DCS or LCS

Cc1ncc(COP(=O)(O)O)c(C=O)c1O [PLP]
X-ray crystallography; absorbance maximum 417 nm (StDCyD [3]): PLP is bound by a Schiff base linkage to Lys51

Cc1ncc(COP(=O)(O)O)c(CN)c1O [PMP]
X-ray crystallography, co-crystallization with DCS or LCS (StDCyD [4]): PMP is not covalently linked to ε-amino group of Lys51

CC(=O)C(=O)O [pyruvate]
Tm with ligand (StDCyD [5]): 80 to 85 °C | X-ray crystallography, crystals soaked with D-Cys or βCDA (StDCyD [6]): The modeled pyruvate is held by hydrogen bonding with Arg222 and Ser221

B1: Salmonella typhimurium D-cysteine desulfhydrase (enzyme, UniProt Q8ZNT7 1-328, looked up)
chain: MPLHHLTRFPRLEFIGAPTPLEYLPRLSDYLGREIYIKRDDVTPIAMGGNKLRKLEFLVADALREGADTLITAGAIQSNHVRQTAAVAAKLGLHCVALLENPIGTTAENYLTNGNRLLLDLFNTQIEMCDALTDPDAQLQTLATRIEAQGFRPYVIPVGGSSALGAMGYVESALEIAQQCEEVVGLSSVVVASGSAGTHAGLAVGLEHLMPDVELIGVTVSRSVAEQKPKVIALQQAIAGQLALTATADIHLWDDYFAPGYGVPNDAGMEAVKLLASLEGVLLDPVYTGKAMAGLIDGISQKRFNDDGPILFIHTGGAPALFAYHPHV
modifications: PLP bound by a Schiff base linkage to Lys51
notes: residues 1-328; Cloned in pRSET C; no cleavage of the tag is described; Small domain residues 48-161, large domain residues 1-47 and 162-328; also called StDCyD; DCyD; source: E. coli BL21 (DE3) Rosetta, purified (Ni-NTA, size exclusion chromatography)
stoichiometry N [7]: 2
